# Legend:
# [1] = molecular target: T1, recombinant METTL3/METTL14 complex (Homo sapiens, UniProt Q86U44); test: METTL3/14 Scintillation Proximity Assay (SPA), RNA methyltransferase activity; assay type: biochemical; settings: 5.31 nM METTL3/14 complex, 250 nM RNA substrate, 1 μM 3H-SAM, 90 min; for compounds marked * best of the two separated forms
# T1 construct: purchased Active Motif 311970; host or cells: Sf9 cells
# Caov-3 cells = test: Caov-3 cellular viability assay (ATP-Lite, 72 h); assay type: cell-based; settings: Homo sapiens, ATP-Lite luminescence, % viability relative to DMSO
# Outline: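 10000 cells/well treated 72 h at 37 °C, 5% CO2, in RPMI-1640 with 10% FBS and 0.1% DMSO final. Viability by ATP-Lite One Step luminescence. Expressed as % of DMSO control, with IC50 from each compound's concentration-response curve.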
# Kasumi-1 cells = test: Kasumi-1 cellular viability assay (ATP-Lite, 72 h); assay type: cell-based; settings: Homo sapiens, ATP-Lite luminescence, % viability relative to DMSO
# Outline: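 Kasumi-1 AML cells, 15000/well in RPMI-1640 with 10% FBS, were exposed to compound titrations (0.1% final DMSO) for 72 h at 37 °C, 5% CO2. ATP-Lite One Step luminescence gave % viability versus DMSO control, and IC50 came from the concentration-response.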
# T1 sequence (Q86U44 whole entry): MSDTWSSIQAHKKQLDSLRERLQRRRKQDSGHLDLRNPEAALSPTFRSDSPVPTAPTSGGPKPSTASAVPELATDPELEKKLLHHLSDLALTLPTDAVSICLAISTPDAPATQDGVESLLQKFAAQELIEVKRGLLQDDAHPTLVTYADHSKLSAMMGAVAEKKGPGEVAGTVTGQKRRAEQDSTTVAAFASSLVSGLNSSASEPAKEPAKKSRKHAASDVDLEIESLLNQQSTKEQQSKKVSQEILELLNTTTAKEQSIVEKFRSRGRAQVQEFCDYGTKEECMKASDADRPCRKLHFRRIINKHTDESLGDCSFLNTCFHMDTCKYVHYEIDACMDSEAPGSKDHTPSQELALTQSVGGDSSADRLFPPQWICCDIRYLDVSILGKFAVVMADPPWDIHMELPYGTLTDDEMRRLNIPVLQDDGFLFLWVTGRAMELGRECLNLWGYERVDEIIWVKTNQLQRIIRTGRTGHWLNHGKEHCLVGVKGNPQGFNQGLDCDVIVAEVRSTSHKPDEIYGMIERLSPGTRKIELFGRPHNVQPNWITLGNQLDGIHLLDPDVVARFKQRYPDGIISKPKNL
# T1 sequence (Q9HCE5 whole entry partner): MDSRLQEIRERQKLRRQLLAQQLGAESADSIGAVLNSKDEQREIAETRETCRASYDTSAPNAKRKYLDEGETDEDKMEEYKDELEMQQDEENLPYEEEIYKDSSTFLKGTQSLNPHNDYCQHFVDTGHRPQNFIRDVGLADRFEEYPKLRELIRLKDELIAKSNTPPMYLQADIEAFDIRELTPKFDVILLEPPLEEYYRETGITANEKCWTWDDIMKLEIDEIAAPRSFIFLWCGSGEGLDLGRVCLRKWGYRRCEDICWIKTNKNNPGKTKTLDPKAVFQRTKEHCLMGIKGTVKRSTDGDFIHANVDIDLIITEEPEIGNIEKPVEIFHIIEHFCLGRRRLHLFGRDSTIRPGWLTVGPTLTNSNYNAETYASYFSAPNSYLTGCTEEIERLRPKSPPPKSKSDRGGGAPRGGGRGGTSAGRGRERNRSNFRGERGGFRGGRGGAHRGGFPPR
IC50 [1] [nM],Structure (SMILES),IC50 (Caov-3 cells) [nM],IC50 (Kasumi-1 cells) [nM]
≤ 50,"c1cc(Cn2cc(-c3cncc(N4CCCC4)n3)nn2)ncc1N1CCC[C@@H](NCC2CCC2)C1 [Compound 282, (R)-N-(cyclobutylmethyl)-1-(6-((4-(6-(pyrrolidin-1-yl)pyrazin-2-yl)-1H-1,2,3-triazol-1-yl)methyl)pyridin-3-yl)piperidin-3-amine]",≤ 500,≤ 500
≤ 50,"c1cc(C2(n3cc(-c4cncc(C5CC5)n4)nn3)COC2)ncc1N1CCC[C@@H](NCC2CCC2)C1 [Compound 283, (R)-N-(cyclobutylmethyl)-1-(6-(3-(4-(6-cyclopropylpyrazin-2-yl)-1H-1,2,3-triazol-1-yl)oxetan-3-yl)pyridin-3-yl)piperidin-3-amine]",≤ 500,≤ 500
≤ 50,"c1cc(N2CCC[C@@H](NCC3CCC3)C2)ccc1Cn1cc(-c2cncc(N3CCCC3)n2)nn1 [Compound 287, (R)-N-(cyclobutylmethyl)-1-(4-((4-(6-(pyrrolidin-1-yl)pyrazin-2-yl)-1H-1,2,3-triazol-1-yl)methyl)phenyl)piperidin-3-amine]",≤ 500,≤ 500
≤ 50,"c1cc(N2CCC[C@@H](NCC3CCC3)C2)ccc1Cn1cc(-c2cncc(N3CC4CC4C3)n2)nn1 (stereo partly drawn) [Compound 288, (3R)-1-(4-((4-(6-(3-azabicyclo[3.1.0]hexan-3-yl)pyrazin-2-yl)-1H-1,2,3-triazol-1-yl)methyl)phenyl)-N-(cyclobutylmethyl)piperidin-3-amine]",≤ 500,≤ 500
≤ 50,"c1cnn(-c2cncc(-c3cn(C4(c5ccc(N6CCC[C@@H](NCC7CCC7)C6)cn5)COC4)nn3)n2)c1 [Compound 289, (R)-1-(6-(3-(4-(6-(1H-pyrazol-1-yl)pyrazin-2-yl)-1H-1,2,3-triazol-1-yl)oxetan-3-yl)pyridin-3-yl)-N-(cyclobutylmethyl)piperidin-3-amine]",≤ 500,≤ 500
≤ 50,"c1cc(C2(n3cc(-c4cncc(N5CC6CC6C5)n4)nn3)COC2)ncc1N1CCC[C@@H](NCC2CCC2)C1 (stereo partly drawn) [Compound 291, (3R)-1-(6-(3-(4-(6-(3-azabicyclo[3.1.0]hexan-3-yl)pyrazin-2-yl)-1H-1,2,3-triazol-1-yl)oxetan-3-yl)pyridin-3-yl)-N-(cyclobutylmethyl)piperidin-3-amine]",≤ 500,≤ 500
≤ 50,"CC(c1ccc(N2CCC[C@@H](NCC3CCC3)C2)cn1)n1cc(-c2cncc(C3CC3)n2)nn1 (stereo partly drawn) [Compound 292, (3R)—N-(cyclobutylmethyl)-1-(6-(1-(4-(6-cyclopropylpyrazin-2-yl)-1H-1,2,3-triazol-1-yl)ethyl)pyridin-3-yl)piperidin-3-amine]",500 to 5000,500 to 5000
≤ 50,"c1ccn(-c2cncc(-c3cn(C4(c5ccc(N6CCC[C@@H](NCC7CCC7)C6)cn5)COC4)nn3)n2)c1 [Compound 295, (R)-1-(6-(3-(4-(6-(1H-pyrrol-1-yl)pyrazin-2-yl)-1H-1,2,3-triazol-1-yl)oxetan-3-yl)pyridin-3-yl)-N-(cyclobutylmethyl)piperidin-3-amine]",500 to 5000,≤ 500
≤ 50,"O=C(Nc1cnc2ccccc2n1)C1(c2ccc(N3CCC[C@@H](NCC4CCC4)C3)cn2)COC1 [Compound 297, (R)-3-(5-(3-((cyclobutylmethyl)amino)piperidin-1-Yl)pyridin-2-yl)-N-(quinoxalin-2-yl)oxetane-3-carboxamide]",500 to 5000,> 5000
≤ 50,"O=C(Nc1cc(=O)n2ccccc2n1)C1(c2ncc(N3CCC[C@@H](NCC4CCC4)C3)cc2F)COC1 [Compound 298, (R)-3-(5-(3-((cyclobutylmethyl)amino)piperidin-1-yl)-3-fluoropyridin-2-yl)-N-(4-oxo-4H-pyrido[1,2-a]pyrimidin-2-yl)oxetane-3-carboxamide]",500 to 5000,500 to 5000
≤ 50,"c1cc(C2(n3cc(-c4cncc(N5CCCC5)n4)nn3)COC2)ccc1N1CCC[C@@H](NCC2CCC2)C1 [Compound 301, (R)-N-(cyclobutylmethyl)-1-(4-(3-(4-(6-(pyrrolidin-1-yl)pyrazin-2-yl)-1H-1,2,3-triazol-1-yl)oxetan-3-yl)phenyl)piperidin-3-amine]",≤ 500,≤ 500
≤ 50,"CC(c1ccc(N2CCC[C@@H](NCC34CC(F)(C3)C4)C2)cn1)n1cc(-c2cncc(N3CCCC3)n2)nn1 (stereo partly drawn) [Compound 304, (3R)—N-((3-fluorobicyclo[1.1.1]pentan-1-yl)methyl)-1-(6-(1-(4-(6-(pyrrolidin-1-yl)pyrazin-2-yl)-1H-1,2,3-triazol-1-yl)ethyl)pyridin-3-yl)piperidin-3-amine]",≤ 500,≤ 500
≤ 50,"CC(c1ccc(N2CCC[C@@H](NCC34CC(F)(C3)C4)C2)nn1)n1cc(-c2cncc(N3CCCC3)n2)nn1 (stereo partly drawn) [Compound 305, (3R)—N-((3-fluorobicyclo[1.1.1]pentan-1-yl)methyl)-1-(6-(1-(4-(6-(pyrrolidin-1-yl)pyrazin-2-yl)-1H-1,2,3-triazol-1-yl)ethyl)pyridazin-3-yl)piperidin-3-amine]",≤ 500,≤ 500
≤ 50,"c1ncc(C2CC2)cc1-c1cn(C2(c3ccc(N4CCC[C@@H](NCC5CCC5)C4)cn3)COC2)nn1 [Compound 306, (R)-N-(cyclobutylmethyl)-1-(6-(3-(4-(5-cyclopropylpyridin-3-yl)-1H-1,2,3-triazol-1-yl)oxetan-3-yl)pyridin-3-yl)piperidin-3-amine]",≤ 500,≤ 500
≤ 50,"FC12CC(CN[C@@H]3CCCN(c4ccc(C5(n6cc(-c7cncc(N8CCCC8)n7)nn6)COC5)nc4)C3)(C1)C2 [Compound 308, (R)-N-((3-fluorobicyclo[1.1.1]pentan-1-yl)methyl)-1-(6-(3-(4-(6-(pyrrolidin-1-yl)pyrazin-2-yl)-1H-1,2,3-triazol-1-yl)oxetan-3-yl)pyridin-3-yl)piperdin-3-amine]",≤ 500,≤ 500
≤ 50,"Cn1c(N2CCCC2)cc(NC(=O)C2(c3ccc(N4CCC[C@@H](NCC5CCC5)C4)cn3)COC2)cc1=O [Compound 310, (R)-3-(5-(3-((cyclobutylmethyl)amino)piperidin-1-yl)pyridin-2-yl)-N-(1-methyl-2-oxo-6-(pyrrolidin-1-yl)-1,2-dihydropyridin-4-yl)oxetane-3-carboxamide]",≤ 500,500 to 5000
≤ 50,"O=C(Nc1cc(=O)n2ccsc2n1)C1(c2ccc(N3CCC[C@@H](NCC4CCC4)C3)cn2)COC1 [Compound 311, (R)-3-(5-(3-((cyclobutylmethyl)amino)piperidin-1-yl)pyridin-2-yl)-N-(5-oxo-5H-thiazolo[3,2-a]pyrimidin-7-yl)oxetane-3-carboxamide]",≤ 500,≤ 500
≤ 50,"c1ncc(C2CCC2)cc1-c1cn(C2(c3ccc(N4CCC[C@@H](NCC5CC5)C4)cn3)COC2)nn1 [Compound 312, (R)-1-(6-(3-(4-(5-cyclobutylpyridin-3-yl)-1H-1,2,3-triazol-1-yl)oxetan-3-yl)pyridin-3-yl)-N-(cyclopropylmethyl)piperidin-3-amine]",≤ 500,≤ 500
≤ 50,"c1ncc(C2CCCC2)cc1-c1cn(C2(c3ccc(N4CCC[C@@H](NCC5CC5)C4)cn3)COC2)nn1 [Compound 313, (R)-1-(6-(3-(4-(5-cyclopentylpyridin-3-yl)-1H-1,2,3-triazol-1-yl)oxetan-3-yl)pyridin-3-yl)-N-(cyclopropylmethyl)piperidin-3-amine]",≤ 500,≤ 500
≤ 50,"FC1(F)CC(c2ccc(N3CCC[C@@H](NCC4CC4)C3)cn2)(n2cc(-c3cncc(C4CC4)c3)nn2)C1 [Compound 315, (R)-N-(cyclopropylmethyl)-1-(6-(1-(4-(5-cyclopropylpyridin-3-yl)-1H-1,2,3-triazol-1-yl)-3,3-difluorocyclobutyl)pyridin-3-yl)piperidin-3-amine]",500 to 5000,500 to 5000
≤ 50,"O=c1cc(-c2cn(C3(c4ccc(N5CCC[C@@H](NCC6CC6)C5)cn4)COC3)nn2)nc2ccccn12 [Compound 316, (R)-2-(1-(3-(5-(3-((cyclopropylmethyl)amino)piperidin-1-yl)pyridin-2-yl)oxetan-3-yl)-1H-1,2,3-triazol-4-yl)-4H-pyrido[1,2-a]pyrimidin-4-one]",500 to 5000,500 to 5000
≤ 50,"O=C(Nc1cncc(N2CCCC2)n1)C1(c2ccc(N3CCC[C@@H](NCC4CCC4)C3)nc2)COC1 [Compound 319, (R)-3-(6-(3-((cyclobutylmethyl)amino)piperidin-1-yl)pyridin-3-yl)-N-(6-(pyrrolidin-1-yl)pyrazin-2-yl)oxetane-3-carboxamide]",≤ 500,≤ 500

Structure (SMILES),IC50 [1] [nM],IC50 (Caov-3 cells) [nM],IC50 (Kasumi-1 cells) [nM]
"c1ncc(-c2cn(C3(c4ccc(N5CCC[C@@H](NCC6CCC6)C5)cn4)COC3)nn2)cc1OC1CCC1 [Compound 307, (R)-1-(6-(3-(4-(5-cyclobutoxypyridin-3-yl)-1H-1,2,3-triazol-1-yl)oxetan-3-yl)pyridin-3-yl)-N-(cyclobutylmethyl)piperidin-3-amine]",≤ 50,≤ 500,≤ 500
